Results from patent publication US20050256181A1, “Treating a viral disorder” (ELIXIR PHARMACEUTICALS, INC., priority 2004, published 2005).

molecular target: T1, SirT1 (Homo sapiens, UniProt Q96EB6); experiment: SirT1 p53-382 enzymatic deacetylation assay (fluorogenic Fluor-de-Lys principle); format: biochemical
T1 sequence (Q96EB6 1-747): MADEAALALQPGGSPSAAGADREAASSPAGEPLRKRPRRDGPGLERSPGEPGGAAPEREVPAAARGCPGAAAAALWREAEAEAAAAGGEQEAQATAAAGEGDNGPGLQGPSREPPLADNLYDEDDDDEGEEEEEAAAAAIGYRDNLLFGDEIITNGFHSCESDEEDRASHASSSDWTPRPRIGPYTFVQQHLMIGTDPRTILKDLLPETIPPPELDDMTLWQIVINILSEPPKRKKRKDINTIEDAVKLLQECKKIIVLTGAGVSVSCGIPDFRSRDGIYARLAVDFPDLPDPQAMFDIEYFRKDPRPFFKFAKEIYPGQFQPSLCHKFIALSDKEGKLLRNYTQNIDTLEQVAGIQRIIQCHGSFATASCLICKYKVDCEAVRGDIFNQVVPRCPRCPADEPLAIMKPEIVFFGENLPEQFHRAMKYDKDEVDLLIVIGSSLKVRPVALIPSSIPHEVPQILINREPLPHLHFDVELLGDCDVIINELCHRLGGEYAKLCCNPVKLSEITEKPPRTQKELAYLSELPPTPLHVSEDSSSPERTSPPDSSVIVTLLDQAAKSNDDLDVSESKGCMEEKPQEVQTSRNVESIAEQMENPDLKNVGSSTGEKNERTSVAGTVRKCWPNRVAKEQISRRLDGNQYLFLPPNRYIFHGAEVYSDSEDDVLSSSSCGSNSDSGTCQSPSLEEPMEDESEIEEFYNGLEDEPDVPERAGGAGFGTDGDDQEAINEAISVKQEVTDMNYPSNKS
Excerpt: An exemplary assay method includes a 1536 well format of the SirT1 enzymatic assay that is based on the commercial “Fluor-de-Lys” assay principle by Biomol, which is fluorogenic (www.biomol.com/store/Product_Data_PDFs/ak500.pdf). In this assay, deacetylation of the e-amino function of a lysyl residue is coupled to a fluorogenic “development step that is dependent on the unblocked e-amino functionality and generates fluorescent aminomethylcoumarin. Fluorescence can be read on a commercial macroscopic reader.

IC50	Structure (SMILES)
< 1 µM	NC(=O)C1CCc2c1[nH]c1ccc(Cl)cc21 (centres unmarked) [Compound 1, 7-Chloro-1,2,3,4-tetrahydro-cyclopenta[b]indole-3-carboxylic acid amide]
> 10 µM	NC(=O)C1Cc2c([nH]c3ccccc23)CN1 (centres unmarked) [Compound 2, 2,3,4,9-Tetrahydro-1H-b-carboline-3-carboxylic acid amide]
1 to 10 µM	NC(=O)C1CCc2c([nH]c3ccc(Br)cc23)C1 (centres unmarked) [Compound 3, 6-Bromo-2,3,4,9-tetrahydro-1H-carbazole-2-carboxylic acid amide]
> 10 µM	NC(=O)C1CCc2c([nH]c3ccc(Cl)cc23)C1 (centres unmarked) [Compound 9, 6-Chloro-2,3,4,9-tetrahydro-1H-carbazole-2-carboxylic acid amide]
1 to 10 µM	NC(=O)C1CCc2c1[nH]c1ccccc21 (centres unmarked) [Compound 10, 1,2,3,4-Tetrahydro-cyclopenta[b]indole-3-carboxylic acid amide]
1 to 10 µM	O=C(Nc1ccc(Cl)cn1)C1CCCc2c1[nH]c1ccc(Cl)cc21 (centres unmarked) [Compound 11, 6-Chloro-2,3,4,9-tetrahydro-1H-carbazole-1-carboxylic acid (5-chloro-pyridin-2-yl)-amide]
> 10 µM	Cc1ccc2[nH]c3c(c2c1)CCCC3(C)C(N)=O (centres unmarked) [Compound 12, 1,6-Dimethyl-2,3,4,9-tetrahydro-1H-carbazole-1-carboxylic acid amide]
> 10 µM	NC(=O)C1CCc2c([nH]c3ccc(OC(F)(F)F)cc23)C1 (centres unmarked) [Compound 13, 6-Trifluoromethoxy-2,3,4,9-tetrahydro-1H-carbazole-2-carboxylic acid amide]
